This assay deals with P388 leukemia ip, CD2F1 mice, survival T/C. Briefly: NCI In Vivo Anticancer Drug Screen. Data for tumor model P388 Leukemia (intraperitoneal) in CD2F1 (CDF1) mice. The note with it: endpoint: median survival time, higher = longer survival. In a few lines:
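Mice carrying the transplanted tumor received test compound or vehicle. Survival was recorded in each group, and the value is the treated-group measurement divided by that of the vehicle-treated control group.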

[1] abbreviates: dose: 50.0 mg/kg/injection, schedule: Q01DX005 (ip), vehicle: Klucel (hydroxypropylcellulose) (HPC).
[2] abbreviates: dose: 50.0 mg/kg/injection, schedule: Q01DX005 (ip), vehicle: saline.
[3] abbreviates: dose: 100.0 mg/kg/injection, schedule: Q01DX005 (ip), vehicle: Klucel (hydroxypropylcellulose) (HPC).
[4] abbreviates: dose: 100.0 mg/kg/injection, schedule: Q01DX005 (ip), vehicle: saline.
Where [5] appears, read: dose: 50.0 mg/kg/injection, schedule: Q01DX009 (ip), vehicle: saline with Tween-80.
Where [6] appears, read: dose: 50.0 mg/kg/injection, schedule: Q01DX009 (ip), vehicle: saline.
The mark [7] stands for this setting: dose: 100.0 mg/kg/injection, schedule: Q01DX009 (ip), vehicle: saline with Tween-80.
[8] abbreviates: dose: 100.0 mg/kg/injection, schedule: Q01DX009 (ip), vehicle: saline.
The mark [9] stands for this setting: dose: 200.0 mg/kg/injection, schedule: Q01DX009 (ip), vehicle: saline with Tween-80.
Setting [10] is: dose: 200.0 mg/kg/injection, schedule: Q01DX009 (ip), vehicle: saline.
[11] abbreviates: dose: 60.0 mg/kg/injection, schedule: Q01DX005 (ip), vehicle: saline with Tween-80.
[12] abbreviates: dose: 120.0 mg/kg/injection, schedule: Q01DX005 (ip), vehicle: saline with Tween-80.
Where [13] appears, read: dose: 240.0 mg/kg/injection, schedule: Q01DX005 (ip), vehicle: saline with Tween-80.
The mark [14] stands for this setting: dose: 12.5 mg/kg/injection, schedule: Q01DX009 (ip), vehicle: saline with Tween-80.
The mark [15] stands for this setting: dose: 25.0 mg/kg/injection, schedule: Q01DX009 (ip), vehicle: saline with Tween-80.
Where [16] appears, read: dose: 50.0 mg/kg/injection, schedule: Q01DX005 (ip), vehicle: saline with Tween-80.
The mark [17] stands for this setting: dose: 100.0 mg/kg/injection, schedule: Q01DX005 (ip), vehicle: saline with Tween-80.
The mark [18] stands for this setting: dose: 200.0 mg/kg/injection, schedule: Q01DX005 (ip), vehicle: saline with Tween-80.

“And” between values parts separate entries of the source, which are not always exact repeats. Equal values may be shown once. Toxic doses and inconclusive results are not listed.

Take `CC(C)(C)c1cc2c(c(C(C)(C)OC(=O)c3ccccc3)c1)SOC2(C)C`: the T/C by setting is: (dose: 12.5 mg/kg/injection, schedule: Q01DX005 (ip), vehicle: saline) 101 % of control; (dose: 12.5 mg/kg/injection, schedule: Q01DX005 (ip), vehicle: suspension in saline) 102 % of control; (dose: 25.0 mg/kg/injection, schedule: Q01DX005 (ip), vehicle: saline) 91 % of control; (dose: 25.0 mg/kg/injection, schedule: Q01DX005 (ip), vehicle: suspension in saline) 100 % of control; under setting [1], 100 % of control; under setting [2], 100 % of control. For the same compound, the T/C (dose: 50.0 mg/kg/injection, schedule: Q01DX005 (ip), vehicle: suspension in saline) was 106 % of control; the T/C under setting [3] is 104 % of control; the T/C under setting [4] was 98 % of control; the T/C (dose: 100.0 mg/kg/injection, schedule: Q01DX005 (ip), vehicle: suspension in saline) was 102 % of control.
As for `O=C(/C=C/c1ccc(Cl)cc1)c1ccccc(=O)c1O`, the T/C is 101 % of control under setting [1] and 100 % of control under setting [3].
Regarding `CNc1c(NC)n(C)c(=O)n(C)c1=O`, the T/C runs as follows: under setting [5], 90 % of control; under setting [6], 109 % of control; under setting [7], 105 % of control and 97 % of control; under setting [8], 109 % of control; under setting [9], 121 % of control and 97 % of control; under setting [10], 106 % of control. Besides, the T/C (dose: 400.0 mg/kg/injection, schedule: Q01DX009 (ip), vehicle: saline with Tween-80) is 100 % of control and 112 % of control.
Regarding `CS(=O)(=O)N/N=C(\N)Oc1ccc(Cl)cc1Cl`, the T/C was 97 % of control under setting [11], 93 % of control under setting [12] and 88 % of control under setting [13].
On to `Cc1ccc(C(SCC(N)C(=O)O)(c2ccccc2)c2ccccc2)cc1` (configuration not stated), for which the T/C under setting [14] is 186 % of control; the T/C under setting [15] was 168 % of control; the T/C (dose: 50.0 mg/kg/injection, schedule: Q04DX003 (ip), vehicle: saline with Tween-80) was 177 % of control; the T/C (dose: 100.0 mg/kg/injection, schedule: Q04DX003 (ip), vehicle: saline with Tween-80) is 218 % of control; the T/C (dose: 132.0 mg/kg/injection, schedule: Q04DX003 (ip), vehicle: saline with Tween-80) was 195 % of control; the T/C (dose: 200.0 mg/kg/injection, schedule: Q04DX003 (ip), vehicle: saline with Tween-80) was 254 % of control and 272 % of control. Where the note is “dose: 300.0 mg/kg/injection, schedule: Q04DX003 (ip), vehicle: saline with Tween-80”, the T/C was 263 % of control.
Turning to `CCOC(=O)C1=C(c2ccccc2)OC(N)=C(C#N)C1c1ccc(C)cc1` (configuration not stated), the T/C reads like this: under setting [1], 113 % of control; under setting [3], 101 % of control; (dose: 200.0 mg/kg/injection, schedule: Q01DX005 (ip), vehicle: Klucel (hydroxypropylcellulose) (HPC)) 103 % of control.
With `Nc1nnc(-c2ccc(Cl)cc2)o1`, the T/C is 100 % of control under setting [11], 110 % of control under setting [12] and 103 % of control under setting [13].
With `N#CCCOCN(COCCC#N)c1nc(N(COCCC#N)COCCC#N)nc(N(COCCC#N)COCCC#N)n1`, the T/C was 97 % of control (dose: 7.5 mg/kg/injection, schedule: Q01DX005 (ip), vehicle: DMSO); 94 % of control (dose: 15.0 mg/kg/injection, schedule: Q01DX005 (ip), vehicle: DMSO); 94 % of control (dose: 30.0 mg/kg/injection, schedule: Q01DX005 (ip), vehicle: DMSO).
In the case of `CC(C(=O)N1CCCC1)C(O)c1ccccc1` (configuration not stated), the T/C reads like this: under setting [2], 105 % of control; under setting [4], 107 % of control; (dose: 200.0 mg/kg/injection, schedule: Q01DX005 (ip), vehicle: saline) 98 % of control.
For `COC(=O)/C(C)=C/C1N=C1c1ccccc1` (configuration not stated), the T/C was 114 % of control (dose: 25.0 mg/kg/injection, schedule: Q01DX001 (ip), vehicle: saline with Tween-80); 118 % of control (dose: 50.0 mg/kg/injection, schedule: Q01DX001 (ip), vehicle: saline with Tween-80); 123 % of control (dose: 100.0 mg/kg/injection, schedule: Q01DX001 (ip), vehicle: saline with Tween-80).
Turning to `CCOP(=O)(CCCCN1C(=O)c2ccccc2C1=O)OCC`, the T/C was 100 % of control under setting [8]; 100 % of control under setting [10]; 100 % of control (dose: 400.0 mg/kg/injection, schedule: Q01DX009 (ip), vehicle: saline).
Consider `CC1=NCCN=C(C)C1[N+](=O)[O-]`, for which the T/C was 91 % of control under setting [6] and 87 % of control under setting [8].
Take `N#C/C(=C(/N)N1CCOCC1)N1CCOCC1`: the T/C was 100 % of control (dose: 60.0 mg/kg/injection, schedule: Q01DX005 (ip), vehicle: Klucel (hydroxypropylcellulose) (HPC)); 95 % of control (dose: 120.0 mg/kg/injection, schedule: Q01DX005 (ip), vehicle: Klucel (hydroxypropylcellulose) (HPC)); 98 % of control (dose: 240.0 mg/kg/injection, schedule: Q01DX005 (ip), vehicle: Klucel (hydroxypropylcellulose) (HPC)).
Turning to `CCCCOn1nnc2ccccc21`, the T/C under setting [14] was 94 % of control; the T/C under setting [15] was 103 % of control; the T/C under setting [5] was 100 % of control and 97 % of control; the T/C under setting [7] was 101 % of control; the T/C under setting [9] was 113 % of control.
Turning to `CCC(=O)NC1c2ccccc2Oc2ccccc21`, the T/C reads like this: under setting [16], 100 % of control; under setting [17], 100 % of control; under setting [18], 98 % of control.
Turning to `Cn1c2ccccc2c(=O)c2c(O)cc3c(c21)C=CC(C)(C)O3`, the T/C is, setting by setting: (dose: 0.38 mg/kg/injection, schedule: Q01DX009 (ip), vehicle: Klucel (hydroxypropylcellulose) (HPC)) 107 % of control; (dose: 0.38 mg/kg/injection, schedule: Q01DX009 (ip), vehicle: saline with Tween-80) 95 % of control; (dose: 0.75 mg/kg/injection, schedule: Q01DX009 (ip), vehicle: Klucel (hydroxypropylcellulose) (HPC)) 102 % of control and 97 % of control; (dose: 0.75 mg/kg/injection, schedule: Q01DX009 (ip), vehicle: saline with Tween-80) 98 % of control; (dose: 1.5 mg/kg/injection, schedule: Q01DX009 (ip), vehicle: Klucel (hydroxypropylcellulose) (HPC)) 99 % of control and 103 % of control; (dose: 1.5 mg/kg/injection, schedule: Q01DX009 (ip), vehicle: saline with Tween-80) 94 % of control. In addition, the T/C was 124 % of control (dose: 1.56 mg/kg/injection, schedule: Q01DX009 (ip), vehicle: Klucel (hydroxypropylcellulose) (HPC)); 102 % of control and 103 % of control (dose: 3.0 mg/kg/injection, schedule: Q01DX009 (ip), vehicle: Klucel (hydroxypropylcellulose) (HPC)); 94 % of control (dose: 3.0 mg/kg/injection, schedule: Q01DX009 (ip), vehicle: saline with Tween-80); 101 % of control (dose: 3.12 mg/kg/injection, schedule: Q01DX009 (ip), vehicle: Klucel (hydroxypropylcellulose) (HPC)); 102 % of control (dose: 6.25 mg/kg/injection, schedule: Q01DX009 (ip), vehicle: Klucel (hydroxypropylcellulose) (HPC)); 100 % of control (dose: 12.5 mg/kg/injection, schedule: Q01DX009 (ip), vehicle: Klucel (hydroxypropylcellulose) (HPC)).
As for `CC/C(=N\OC(=O)Nc1ccccc1)c1ccc(OC(=O)Nc2ccccc2)cc1`, the T/C was 99 % of control under setting [16], 95 % of control under setting [17] and 104 % of control under setting [18].
With `CCN1C(=O)CSC1=S`, the T/C runs as follows: (dose: 6.25 mg/kg/injection, schedule: Q04DX002 (ip), vehicle: Klucel (hydroxypropylcellulose) (HPC)) 112 % of control; (dose: 12.5 mg/kg/injection, schedule: Q04DX002 (ip), vehicle: Klucel (hydroxypropylcellulose) (HPC)) 110 % of control; (dose: 25.0 mg/kg/injection, schedule: Q04DX002 (ip), vehicle: Klucel (hydroxypropylcellulose) (HPC)) 105 % of control; (dose: 50.0 mg/kg/injection, schedule: Q04DX002 (ip), vehicle: Klucel (hydroxypropylcellulose) (HPC)) 109 % of control.
`CCOc1ccc(Nc2ncnc3sc4c(c23)CCCC4)cc1`: the T/C runs as follows: under setting [16], 100 % of control; under setting [17], 102 % of control; under setting [18], 109 % of control.

For the origin of these results see PubChem BioAssay AID330 (DTP/NCI, 2004).
